Experiment [1] addresses T1, human B1R receptor (hB1R) (Homo sapiens, UniProt P46663).
T1 construct: host or cells: CHO K1 cells
T1 sequence (P46663 1-353): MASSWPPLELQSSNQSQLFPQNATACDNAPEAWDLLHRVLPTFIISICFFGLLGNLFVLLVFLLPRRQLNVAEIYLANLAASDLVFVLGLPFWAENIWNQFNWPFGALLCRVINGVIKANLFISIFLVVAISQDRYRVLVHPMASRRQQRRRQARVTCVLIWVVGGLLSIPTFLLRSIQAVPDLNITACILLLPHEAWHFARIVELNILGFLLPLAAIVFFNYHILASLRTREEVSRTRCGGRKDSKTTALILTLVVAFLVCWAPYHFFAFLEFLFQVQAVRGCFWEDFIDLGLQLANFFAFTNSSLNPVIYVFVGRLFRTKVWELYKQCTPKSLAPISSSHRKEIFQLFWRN
Kind of experiment: FLIPR Ca2+ assay on human bradykinin 1 receptor (CHO K1 hB1R cells). The conditions noted are these: test substance 10 μM; CHO K1 cells with human B1R gene; agonist Lys-Des-Arg9-bradykinin 0.5 nM; compared to maximum achievable inhibition. The experiment is classed as cell-based. A digest of the protocol:
(§1)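 Values are percent inhibition of agonist-evoked Ca²⁺ influx, measured by Fluo-4 fluorescence peak in FLIPR relative to maximum achievable inhibition. Compound at 10 μM was preincubated 10 min on B1R-transfected CHO K1 cells before challenge with 0.5 nM Lys-Des-Arg9-bradykinin (human) or 100 nM Des-Arg9-bradykinin (rat).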

The target in experiment [2] is T2, B1R receptor of rats (rB1R) (Rattus norvegicus, UniProt P97583).
T2 construct: host or cells: CHO K1 cells
T2 sequence (P97583 1-337): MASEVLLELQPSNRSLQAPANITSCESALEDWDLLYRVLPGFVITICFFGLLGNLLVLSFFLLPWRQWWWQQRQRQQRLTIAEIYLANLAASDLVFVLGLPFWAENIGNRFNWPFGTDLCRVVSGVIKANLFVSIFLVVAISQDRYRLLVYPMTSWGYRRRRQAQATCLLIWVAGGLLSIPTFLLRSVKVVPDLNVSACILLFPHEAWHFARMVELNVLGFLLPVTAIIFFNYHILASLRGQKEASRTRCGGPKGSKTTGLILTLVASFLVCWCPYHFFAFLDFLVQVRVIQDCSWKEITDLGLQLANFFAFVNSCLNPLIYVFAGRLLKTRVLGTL
Kind of experiment: FLIPR Ca2+ assay on rat bradykinin 1 receptor (CHO K1 rB1R cells). Type of experiment: cell-based. The settings on record: test substance 10 μM; CHO K1 cells with B1R gene of rats; agonist Des-Arg9-bradykinin 100 nM; compared to maximum achievable inhibition. A digest of the protocol: as §1

Among the data in US8263598B2, “Substituted sulfonamide compounds” (Gruenenthal GmbH, priority 2008, dated 2012) are inhibition values, retold here.

As for `O=C(CC(NS(=O)(=O)c1ccc2ccccc2c1)c1ccccc1)N1CCn2c(CCc3cccnc3)ccc2C1` (centres unmarked) [Example 171, N-(3-Oxo-1-phenyl-3-(6-(2-(pyridin-3-yl)ethyl)-3,4-dihydropyrrolo[1,2-a]pyrazin-2(1H)-yl)propyl)naphthalene-2-sulfonamide], the inhibition at 10 µM in experiment [1] came out at 30%; in experiment [2], 99%.
Taken in the same sequence, the figures for `COc1cc(C)c(S(=O)(=O)N(C)CCOCC(=O)N2CCn3c(CN4CCOCC4)ccc3C2)c(C)c1` [Example 7, 4-methoxy-N,2,6-trimethyl-N-(2-(2-(6-(morpholinomethyl)-3,4-dihydropyrrolo[1,2-a]pyrazin-2(1H)-yl)-2-oxoethoxy)ethyl)benzenesulfonamide] were 101% and 99%.
Taken in the same sequence, the figures for `CCC1c2cccn2CCN1C(=O)COCCN(CC(C)C)S(=O)(=O)c1c(C)cc(OC)c(C)c1C` (centres unmarked) [Example 100, N-(2-(2-(1-ethyl-3,4-dihydropyrrolo[1,2-a]pyrazin-2(1H)-yl)-2-oxoethoxy)ethyl)-N-isobutyl-4-methoxy-2,3,6-trimethylbenzenesulfonamide] were 98% and 103%.
For `COc1cc(C)c(S(=O)(=O)N(C)CCOCC(=O)N2CCn3cnnc3C2)c(C)c1` [Example 3, N-(2-(2-(5,6-dihydro-[1,2,4]triazolo[4,3-a]pyrazin-7(8H)-yl)-2-oxoethoxy)ethyl)-4-methoxy-N,2,6-trimethylbenzenesulfonamide], in that order: 43% and 93%.
For the compound `Cc1cc(C)c(S(=O)(=O)N(C)CCOCC(=O)N2CCn3cccc3C2C(C)(C)C)c(C)c1` (centres unmarked) [Example 65, N-(2-(2-(1-tert-butyl-3,4-dihydropyrrolo[1,2-a]pyrazin-2(1H)-yl)-2-oxoethoxy)ethyl)-N,2,4,6-tetramethylbenzenesulfonamide], the results for the inhibition at 10 µM in experiment [1] and in experiment [2] were 101% and 99%, respectively.
For `COc1c(C)cc(S(=O)(=O)N(C)CCOCC(=O)N2CCn3c(CN4CCCCC4)ccc3C2c2ccccc2)c(C)c1C` (centres unmarked) [Example 107, 4-methoxy-N,2,3,5-tetramethyl-N-(2-(2-oxo-2-(1-phenyl-6-(piperidin-1-ylmethyl)-3,4-dihydropyrrolo[1,2-a]pyrazin-2(1H)-yl)ethoxy)ethyl)benzene-sulfonamide], in that order: 98% and 102%.
As to `COc1cc(C)c(S(=O)(=O)N(C)CCOCC(=O)N2CCn3c(CN4CCCCC4)ccc3C2c2ccccc2)c(C)c1C` (centres unmarked) [Example 149, 4-methoxy-N,2,3,6-tetramethyl-N-(2-(2-oxo-2-(1-phenyl-6-(piperidin-1-ylmethyl)-3,4-dihydropyrrolo[1,2-a]pyrazin-2(1H)-yl)ethoxy)ethyl)benzene-sulfonamide], the inhibition at 10 µM in experiment [1] and in experiment [2] was 104% each time.
Take `COc1cc(C)c(S(=O)(=O)N(C)CCOCC(=O)N2CCn3cc(CCc4ccncc4)nc3C2)c(C)c1` [Example 178, 4-Methoxy-N,2,6-trimethyl-N-(2-(2-oxo-2-(2-(2-(pyridin-4-yl)ethyl)-5,6-dihydroimidazo[1,2-a]pyrazin-7(8H)-yl)ethoxy)ethyl)benzenesulfonamide]: the inhibition at 10 µM in experiment [1] is 99%; in experiment [2], 100%.
Taken in the same sequence, the figures for `COc1cccc(C2c3cccn3CCN2C(=O)COCCN(C)S(=O)(=O)c2c(C)cc(C)cc2C)c1` (centres unmarked) [Example 76, N-(2-(2-(1-(3-methoxyphenyl)-3,4-dihydropyrrolo[1,2-a]pyrazin-2(1H)-yl)-2-oxoethoxy)ethyl)-N,2,4,6-tetramethylbenzenesulfonamide] were 101% and 97%.
For `CCC1c2cccn2CCN1C(=O)COCCN(Cc1ccccc1)S(=O)(=O)c1c(C)cc(OC)cc1C` (centres unmarked) [Example 132, N-benzyl-N-(2-(2-(1-ethyl-3,4-dihydropyrrolo[1,2-a]pyrazin-2(1H)-yl)-2-oxoethoxy)ethyl)-4-methoxy-2,6-dimethylbenzenesulfonamide], in that order: 100% and 102%.

A word on the inhibition: it is the drop in the measured response relative to a control, in per cent.
